Data reported in PubChem BioAssay AID256 (DTP/NCI, 2004).
Values joined by “and” are separate entries in the source; they are usually repeats but may differ in a detail not shown here. Equal values may be shown once. Toxic doses and inconclusive results are not listed. The calls were made as follows: active = survival T/C of 150% or more; inactive = T/C below 125% in these data.

System: CD2F1 mice, L1210 leukemia ip, survival T/C
Assay: NCI In Vivo Anticancer Drug Screen. Data for tumor model L1210 Leukemia (intraperitoneal) in CD2F1 (CDF1) mice
Details: higher = longer survival
Summary of the method: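 Each value reflects a quotient of treated over vehicle control outcomes in mice with a transplanted tumor.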

[1] = endpoint: mean survival time, dose: 100.0 mg/kg/injection, schedule: Q01DX009 (ip), vehicle: saline with Tween-80
[2] = endpoint: mean survival time, dose: 100.0 mg/kg/injection, schedule: Q04DX003 (ip), vehicle: saline with Tween-80
[3] = endpoint: mean survival time, dose: 200.0 mg/kg/injection, schedule: Q01DX009 (ip), vehicle: saline with Tween-80
[4] = endpoint: mean survival time, dose: 200.0 mg/kg/injection, schedule: Q04DX003 (ip), vehicle: saline with Tween-80
[5] = endpoint: mean survival time, dose: 400.0 mg/kg/injection, schedule: Q01DX009 (ip), vehicle: saline with Tween-80
[6] = endpoint: mean survival time, dose: 100.0 mg/kg/injection, schedule: Q04DX002 (ip), vehicle: saline with Tween-80
[7] = endpoint: mean survival time, dose: 200.0 mg/kg/injection, schedule: Q04DX002 (ip), vehicle: saline with Tween-80
[8] = endpoint: mean survival time, dose: 400.0 mg/kg/injection, schedule: Q04DX002 (ip), vehicle: saline with Tween-80
[9] = endpoint: mean survival time, dose: 200.0 mg/kg/injection, schedule: Q01DX005 (ip), vehicle: distilled water + Tween-80
[10] = endpoint: mean survival time, dose: 400.0 mg/kg/injection, schedule: Q01DX005 (ip), vehicle: distilled water + Tween-80
[11] = endpoint: mean survival time, dose: 25.0 mg/kg/injection, schedule: Q01DX009 (ip), vehicle: saline with Tween-80
[12] = endpoint: mean survival time, dose: 50.0 mg/kg/injection, schedule: Q01DX009 (ip), vehicle: saline with Tween-80

Measured: T/C

C=C(C)[C@H]1CN[C@H](C(=O)O)[C@H]1CC(=O)O
inactive: endpoint: mean survival time, dose: 5.0 mg/kg/injection, schedule: Q01DX001 (ip), vehicle: saline 94 % of control | endpoint: median survival time, dose: 0.31 mg/kg/injection, schedule: Q01DX009 (ip), vehicle: saline with Tween-80 103 % of control | endpoint: median survival time, dose: 0.62 mg/kg/injection, schedule: Q01DX009 (ip), vehicle: saline with Tween-80 101 % of control | endpoint: median survival time, dose: 1.25 mg/kg/injection, schedule: Q01DX009 (ip), vehicle: saline with Tween-80 100 % of control | endpoint: median survival time, dose: 2.5 mg/kg/injection, schedule: Q01DX009 (ip), vehicle: saline with Tween-80 101 % of control | endpoint: median survival time, dose: 2.5 mg/kg/injection, schedule: Q01DX009 (ip), vehicle: saline 96 % of control | endpoint: median survival time, dose: 5.0 mg/kg/injection, schedule: Q01DX009 (ip), vehicle: saline with Tween-80 101 % of control | endpoint: median survival time, dose: 5.0 mg/kg/injection, schedule: Q01DX009 (ip), vehicle: saline 103 % of control | endpoint: median survival time, dose: 6.25 mg/kg/injection, schedule: Q01DX009 (ip), vehicle: saline 104 % of control | endpoint: median survival time, dose: 10.0 mg/kg/injection, schedule: Q01DX009 (ip), vehicle: saline with Tween-80 101 % of control | endpoint: median survival time, dose: 10.0 mg/kg/injection, schedule: Q01DX009 (ip), vehicle: saline 101 % of control | endpoint: median survival time, dose: 12.5 mg/kg/injection, schedule: Q01DX009 (ip), vehicle: saline 108 % of control | endpoint: median survival time, dose: 20.0 mg/kg/injection, schedule: Q01DX009 (ip), vehicle: saline 95 % of control | endpoint: median survival time, dose: 25.0 mg/kg/injection, schedule: Q01DX009 (ip), vehicle: saline 97 % of control | endpoint: median survival time, dose: 40.0 mg/kg/injection, schedule: Q01DX009 (ip), vehicle: saline 93 % of control | endpoint: median survival time, dose: 50.0 mg/kg/injection, schedule: Q01DX009 (ip), vehicle: saline 96 % of control

CC1CCc2c(ccc3ccccc23)C1=O (configuration not stated)
inactive: [1] 97 % of control | [2] 97 % of control | [3] 95 % of control | [4] 97 % of control | [5] 97 % of control | endpoint: mean survival time, dose: 400.0 mg/kg/injection, schedule: Q04DX003 (ip), vehicle: saline with Tween-80 94 % of control

COC(=O)c1ccc(=O)c2nc3/c(=C/O)c(O)cc(=O)c3[nH]c12
inactive: endpoint: mean survival time, dose: 5.0 mg/kg/injection, schedule: Q04DX003 (ip), vehicle: saline with Tween-80 107 % of control | endpoint: mean survival time, dose: 10.0 mg/kg/injection, schedule: Q04DX003 (ip), vehicle: saline with Tween-80 90 % of control

C=C(NC(=O)CN)C(=O)O
inactive: [6] 100 % of control | [7] 95 % of control | [8] 95 % of control

CC(=O)OCC1OC(OC(C)=O)C(NC(=O)NS(=O)(=O)c2ccc(C)cc2)C(OC(C)=O)C1OC(C)=O (configuration not stated)
inactive: endpoint: mean survival time, dose: 12.5 mg/kg/injection, schedule: Q01DX009 (ip), vehicle: other 105 % of control | endpoint: mean survival time, dose: 25.0 mg/kg/injection, schedule: Q01DX009 (ip), vehicle: other 98 % of control | endpoint: mean survival time, dose: 50.0 mg/kg/injection, schedule: Q01DX009 (ip), vehicle: other 93 % of control | endpoint: mean survival time, dose: 100.0 mg/kg/injection, schedule: Q01DX009 (ip), vehicle: other 94 % of control | endpoint: mean survival time, dose: 200.0 mg/kg/injection, schedule: Q01DX009 (ip), vehicle: other 94 % of control

Cn1c(C(O)c2cccnc2)c(CN2CCCCC2)c2ccccc21 (configuration not stated)
inactive: endpoint: mean survival time, dose: 100.0 mg/kg/injection, schedule: Q01DX001 (ip), vehicle: saline with Tween-80 97 % of control | endpoint: mean survival time, dose: 200.0 mg/kg/injection, schedule: Q01DX001 (ip), vehicle: saline with Tween-80 94 % of control

COc1cc(/C=N\NC(C)=O)cc(OC)c1OC
inactive: [2] 101 % of control | [4] 95 % of control

C/C(=N\O)C1(C)CC=CCC1CO (configuration not stated)
inactive: endpoint: mean survival time, dose: 100.0 mg/kg/injection, schedule: Q01DX009 (ip), vehicle: saline sonified 102 % of control | endpoint: mean survival time, dose: 200.0 mg/kg/injection, schedule: Q01DX009 (ip), vehicle: saline sonified 96 % of control | endpoint: mean survival time, dose: 400.0 mg/kg/injection, schedule: Q01DX009 (ip), vehicle: saline sonified 100 % of control

O=C(O)c1ccc(Cl)c2ncccc12
inactive: endpoint: mean survival time, dose: 37.5 mg/kg/injection, schedule: Q01DX009 (ip), vehicle: saline 100 % of control | endpoint: mean survival time, dose: 75.0 mg/kg/injection, schedule: Q01DX009 (ip), vehicle: saline 95 % of control | endpoint: mean survival time, dose: 75.0 mg/kg/injection, schedule: Q04DX003 (ip), vehicle: saline 100 % of control | endpoint: mean survival time, dose: 150.0 mg/kg/injection, schedule: Q01DX009 (ip), vehicle: saline 105 % of control | endpoint: mean survival time, dose: 150.0 mg/kg/injection, schedule: Q04DX003 (ip), vehicle: saline 97 % of control | endpoint: mean survival time, dose: 300.0 mg/kg/injection, schedule: Q04DX003 (ip), vehicle: saline 95 % of control

Clc1ccc(C(c2ccccc2Cl)C(Cl)Cl)cc1 (configuration not stated)
inactive: endpoint: mean survival time, dose: 62.5 mg/kg/injection, schedule: Q01DX009 (sc), vehicle: steriod suspending solution 95 % of control and 106 % of control | endpoint: mean survival time, dose: 125.0 mg/kg/injection, schedule: Q01DX009 (sc), vehicle: steriod suspending solution 98 % of control and 102 % of control | endpoint: mean survival time, dose: 250.0 mg/kg/injection, schedule: Q01DX009 (sc), vehicle: steriod suspending solution 95 % of control and 105 % of control | endpoint: mean survival time, dose: 500.0 mg/kg/injection, schedule: Q01DX009 (sc), vehicle: steriod suspending solution 101 % of control and 106 % of control

CC(C)C(=O)OCC(C)(C)COC(=O)C(C)C
inactive: endpoint: mean survival time, dose: 100.0 mg/kg/injection, schedule: Q04DX003 (ip), vehicle: saline 87 % of control | endpoint: mean survival time, dose: 200.0 mg/kg/injection, schedule: Q04DX003 (ip), vehicle: saline 87 % of control | endpoint: mean survival time, dose: 400.0 mg/kg/injection, schedule: Q04DX003 (ip), vehicle: saline 94 % of control

Cc1ccc(Cl)cc1[NH-].Cc1ccc(Cl)cc1[NH-].[Cl][Pt+2][Cl]
inactive: endpoint: mean survival time, dose: 25.0 mg/kg/injection, schedule: Q04DX003 (ip), vehicle: saline with Tween-80 100 % of control | endpoint: mean survival time, dose: 50.0 mg/kg/injection, schedule: Q04DX003 (ip), vehicle: saline with Tween-80 95 % of control | [2] 97 % of control | [4] 101 % of control

CCOC(=O)C(C)(C(=O)OCC)n1cnc2c1c(=O)n(C)c(=O)n2C
inactive: endpoint: mean survival time, dose: 100.0 mg/kg/injection, schedule: Q01DX005 (ip), vehicle: distilled water + Tween-80 100 % of control | [9] 102 % of control | [10] 107 % of control

c1ccc(C2SCCCS2)cc1
inactive: endpoint: mean survival time, dose: 100.0 mg/kg/injection, schedule: Q04DX003 (ip), vehicle: other 101 % of control | endpoint: mean survival time, dose: 200.0 mg/kg/injection, schedule: Q04DX003 (ip), vehicle: other 97 % of control | endpoint: mean survival time, dose: 400.0 mg/kg/injection, schedule: Q04DX003 (ip), vehicle: other 101 % of control

CC(C)C(=O)C(C)(C)C(=O)N1CCCC1
inactive: endpoint: mean survival time, dose: 100.0 mg/kg/injection, schedule: Q01DX009 (ip), vehicle: saline 92 % of control | endpoint: mean survival time, dose: 200.0 mg/kg/injection, schedule: Q01DX009 (ip), vehicle: saline 103 % of control | endpoint: mean survival time, dose: 400.0 mg/kg/injection, schedule: Q01DX009 (ip), vehicle: saline 91 % of control

Cn1c(=O)c2c(ncn2C(C(N)=O)C(N)=O)n(C)c1=O
inactive: [9] 106 % of control | [10] 100 % of control

CCOc1ccc(Br)cc1/C=N/NS(=O)(=O)c1ccc(C)cc1
inactive: [11] 111 % of control | [12] 114 % of control | [1] 113 % of control

Cc1c(C)c(C)c(CN2CCC(C)CC2)c(C)c1C
inactive: [11] 90 % of control | [12] 91 % of control | [6] 98 % of control | [3] 90 % of control | [7] 94 % of control | [5] 86 % of control | [8] 94 % of control
